Measured values: patent US20080090767A1, “Agent for prophylaxis of reflex sympathetic dystrophy after cerebral apoplexy” (Asahi Kasei Pharma Corporation, priority 2006, published 2008)

How the values were obtained:
[1] = system: patients with hemiplegia attributed to cerebrovascular disease (stroke) at Brunnstrom stage III or lower, not yet developing RSD; experiment: Test of prevention of onset of post-stroke RSD (Example 1); format: in vivo, human
Source text: Test subjects were 32 patients with hemiplegia attributed to cerebrovascular disease (stroke) at Brunnstrom stage III or lower in either the upper limb or a finger on admission. Patients already developing RSD (shoulder-hand syndrome) on admission and patients with pain in the shoulder joint or swollen paralyzed limbs were excluded from the test. […] On the other hand, 21 test subjects were classified into a rehabilitation alone group (control group) and compared with the EL administration group. Physical therapy and therapeutic exercise, occupational therapy, and the management of the paralyzed limbs were performed thoroughly in all the cases. […] EL administration was initiated 11 to 59 days after an attack of stroke (25.8 days on average) and continued until 5 months after the attack of stroke. The same observation period was applied to the control group. The test subjects were diagnosed as developing RSD (shoulder-hand syndrome) if they had diffuse pain not localized to the shoulder joint, edema involving skin color changes, skin temperature abnormalities, and range of motion limitations, and the practice of their rehabilitation was restricted. These criteria agreed to Veldman's diagnostic criteria or diagnostic criteria for CRPS-type 1 provided by the International Association for the Study of Pain.
Activities of daily living (ADL) were evaluated on the basis of the Barthel Index (BI) and the range of motion (ROM) of shoulder joint. The movable range of shoulder joint (also referred to as “shoulder ROM”) was regarded as restricted (Shoulder-ROM-restrictions were present.) if either abduction or flexion was restricted in measurement. The test subjects were also examined for sensory impairment, aphasia, and unilateral spatial neglect on admission.
Statistical analysis was conducted with unpaired t-test, Fisher's exact test or Wilcoxon test, and 5% or lower significance level was regarded as being significant.

[2] = system: patients with hemiplegia attributed to cerebrovascular disease (stroke) who developed RSD (shoulder-hand syndrome); experiment: Test of treatment of post-stroke RSD (Reference Example 1); format: in vivo, human
Method: EL was administered after the onset of RSD (shoulder-hand syndrome) in the same use and dose as in Example 1 to 11 patients with hemiplegia attributed to cerebrovascular disease (stroke) at Brunnstrom stage III or lower in either the upper limb or a finger on admission, who developed RSD (shoulder-hand syndrome). These patients were classified into a therapeutic administration group. On the other hand, the EL administration group of Example 1 was compared as a control (preventive administration group) with the therapeutic administration group.

[3] = system: RSD triggered and developed by a trauma or surgical invasion; conditions: literature report; cited from earlier work
[4] = EL preventive administration group, 20 units i.m. once a week, until 5 months after the attack of stroke
[5] = preventive administration group
[6] = therapeutic administration group

Compound | Incidence of RSD converted to incidence in all patients with hemiplegia attributed to stroke in the facility ([1]; EL administration group) | Incidence of RSD (cases that developed RSD) ([1]; EL preventive administration group, 1 of the 12 cases) | The number of test subjects developing post-stroke RSD: Developed [1, 4] | The number of test subjects developing post-stroke RSD: Not developed [1, 4] | Incidence of RSD when EL administration was initiated within 48 days after stroke ([1]; administration initiated within 48 days after stroke) | Barthel index, Average ± SE (at completion of administration) [1, 5] | Barthel index, Median (at completion of administration) [1, 5] | No RSD, the number of persons (at completion of administration) [1, 5] | Barthel index, Average ± SE (at completion of administration) [2, 6] | Barthel index, Median (at completion of administration) [2, 6] | No RSD, the number of persons (at completion of administration) ([2]; therapeutic administration group (EL after onset of RSD)) | Effect on the initial onset of RSD in subjects having no anamnesis of RSD after a trauma or surgical invasion [3]
1-butyric acid-7-(L-2-aminobutyric acid)-26-L-aspartic acid-27-L-valine-29-L-alanine-calcitonin [elcatonin] | approximately 1.3% | 8.3% | 1 | 11 | 0% | 60.8 ± 9.3 | 72.5 | 11 | 31.8 ± 7.8 | 25 | 0 | –
O=C1O[C@H]([C@@H](O)CO)C(O)=C1O [vitamin C] | – | – | – | – | – | – | – | – | – | – | – | preventive effect
